21 compounds from patent publication US8202885B2, “Bridged six-membered ring compounds” (Actelion Pharmaceuticals Ltd., priority 2007, dated 2012) can be followed below.

Some results are limits rather than exact numbers.

For this assay, the system named is human Cav3.1 Cav3.2 or Cav3.3 channel. The experiment in a line: In vitro assay T channel (FLIPR calcium fluorescence). The assay is classed as cell-based. The following applies: HEK293 cells expressing human Cav3.1, Cav3.2 or Cav3.3; 10 mM Ca2+-induced fluo-4 fluorescence; determined up to 10 μM; read-out: T channel antagonistic activity IC50. On the procedure: The T channel antagonistic activity (IC50 values) of the compounds of formula (I) is determined in accordance with the following experimental method and data are shown in Table 1.
Human embryonic kidney (HEK293) cells expressing the human Cav3.1 Cav3.2 or Cav3.3 channel, respectively, are grown in culture medium (DMEM containing 10% heat-inactivated fetal calf serum (FCS), 100 U/ml penicillin, 100 μg/ml streptomycin and 1 mg/ml G418). The cells are seeded at 20.000 cells/well into 384-well black clear bottom sterile plates (poly-L-lysine-coated, Becton Dickinson). The seeded plates are incubated overnight at 37° C. in 5% CO2. The Ca^2+ solution is prepared as 100 mM stock solution in 100 mM tetraethylammoniumchloride (TEA-chloride), 50 mM HEPES, 2.5 mM CaCl2, 5 mM KCl, 1 mM MgCl2, adjusted to pH 7.2 with TEA-hydroxide, for use in the assay at a final concentration of 10 mM. Antagonists are prepared as 10 mM stock solutions in DMSO, then diluted in 384 w plates first in DMSO, then in 100 mM TEA-chloride, 50 mM HEPES, 2.5 mM CaCl2, 5 mM KCl, 1 mM MgCl2, adjusted to pH 7.2 with TEA-hydroxide, to obtain 9× stocks. On the day of the assay, 25 μl of staining buffer (HBSS containing 20 mM HEPES, 0.375 g/l NaHCO3 and 3 μM of the fluorescent calcium indicator fluo-4 AM (1 mM stock solution in DMSO, containing 10% pluronic) is added to each well of the seeded plate. The 384-well cell-plates are incubated for 60 min at 37° C. in 5% CO2 followed by washing with 2×50 μl per well using HBSS containing 0.1% BSA, 20 mM HEPES, 0.375 g/l NaHCO3, leaving 50 […] of this buffer for equilibration at room temperature (30-60 min). Within the Fluorescent Imaging Plate Reader (FLIPR, Molecular Devices), antagonists are added to the plate in a volume of 6.25 μl/well, incubated for 3 min, and finally 6.25 […] of Ca^2+ solution is added. Fluorescence is measured for each well at 2 second intervals for 8 minutes, and the area under the curve of each fluorescence peak is compared to the area of the fluorescence peak induced by 10 mM Ca^2+ with vehicle in place of antagonist. For each antagonist, the IC50 value (the concentration (in nM) of compound needed to inhibit 50% of the Ca^2+-induced fluorescence response) up to 10 μM is determined.
On to `CN(CCCc1ccnc2ccccc12)CC[C@]1(O)C[C@H]2CC[C@@H]1C=C2c1ccccc1` (relative stereo) [Example 50, rac-(1R*,2R*,4R*)-2-{2-[Methyl-(3-quinolin-4-yl-propyl)-amino]-ethyl}-5-phenyl-bicyclo[2.2.2]oct-5-en-2-ol], for which the IC50 (usually the concentration needed to halve the response being measured) was over 10 µM.

Turning to `CO[C@]1(c2ccccc2)C[C@H]2CC[C@@H]1C[C@]2(CCN(C)CCCc1nc2ccccc2[nH]1)OC(=O)C(C)C` (relative stereo) [Example 76A, rac-Isobutyric acid (1R*,2R*,4R*,5R*)-2-(2-{[3-(1H-benzoimidazol-2-yl)-propyl]-methyl-amino}-ethyl)-5-methoxy-5-phenyl-bicyclo[2.2.2]oct-2-yl ester], the IC50 was found to be 2.12 µM. Then `COc1cccc2[nH]c(CCCN(C)CCC3(OC(=O)C(C)C)CC4CCC3C=C4c3ccccc3)nc12` [Example 55A, Isobutyric acid (1R,2R,4R)-2-(2-{[3-(4-methoxy-1H-benzoimidazol-2-yl)-propyl]-methyl-amino}-ethyl)-5-phenyl-bicyclo[2.2.2]oct-5-en-2-yl ester or isobutyric acid (1S,2S,4S)-2-(2-{[3-(4-methoxy-1H-benzoimidazol-2-yl)-propyl]-methyl-amino}-ethyl)-5-phenyl-bicyclo[2.2.2]oct-5-en-2-yl ester], with 1.07 µM; and `CC(C)C(=O)O[C@@]1(CCN(C)CCCc2nc3ccccc3[nH]2)C[C@H]2CC[C@@H]1C=C2c1cccc(F)c1` (relative stereo) [Example 7A, rac-Isobutyric acid (1R*,2R*,4R*)-2-(2-{[3-(1H-benzoimidazol-2-yl)-propyl]-methyl-amino}-ethyl)-5-(3-fluoro-phenyl)-bicyclo[2.2.2]oct-5-en-2-yl ester], with 3.14 µM. To `CCOc1ccc(CCN(CC)CC[C@]2(O)C[C@H]3CC[C@@H]2C=C3c2ccccc2)cc1OCC` (relative stereo) [Example 38, rac-(1R*,2R*,4R*)-2-(2-{[2-(3,4-Diethoxy-phenyl)-ethyl]-ethyl-amino}-ethyl)-5-phenyl-bicyclo[2.2.2]oct-5-en-2-ol] belongs 6.7 µM; to `CN(CCCc1ccccc1)CC[C@]1(O)C[C@H]2CC[C@@H]1C=C2c1ccccc1` (relative stereo) [Example 15, rac-(1R*,2R*,4R*)-2-{2-[Methyl-(3-phenyl-propyl)-amino]-ethyl}-5-phenyl-bicyclo[2.2.2]oct-5-en-2-ol], over 10 µM.

With `CC(C)C(=O)O[C@@]1(CCN(C)CCCc2nc3ccccc3[nH]2)C[C@H]2CC[C@@H]1C[C@@]21OCc2ccccc21` (relative stereo) [Example 79A, rac-Isobutyric acid (1R*,2R*,4R*,5R*)-5-(2-{[3-(1H-benzoimidazol-2-yl)-propyl]-methyl-amino}-ethyl)-3′H-spiro(bicyclo[2.2.2]octane-2,1′-isobenzofuran)-5-yl ester], the IC50 was determined as 9.47 µM. To `CN(CCCc1nc2cccc(O)c2[nH]1)CC[C@]1(O)C[C@H]2CC[C@@H]1C=C2c1ccccc1` (relative stereo) [Example 34, rac-(1R*,2R*,4R*)-2-(3-{[2-(2-Hydroxy-5-phenyl-bicyclo[2.2.2]oct-5-en-2-yl)-ethyl]-methyl-amino}-propyl)-3H-benzoimidazol-4-ol] belongs 2.56 µM; to `CN(CCCc1nc2ccccc2[nH]1)CC[C@]1(O)C[C@H]2CC[C@@H]1C[C@@]21OCc2ccccc21` (relative stereo) [Example 79, rac-(1R*,2R*,4R*,5R*)-5-(2-{[3-(1H-Benzoimidazol-2-yl)-propyl]-methyl-amino}-ethyl)-3′H-spiro(bicyclo[2.2.2]octane-2,1′-isobenzofuran)-5-ol], 2.92 µM; to `COC(=O)c1cccc2[nH]c(CCCN(C)CC[C@]3(O)C[C@H]4CC[C@@H]3C=C4c3ccccc3)nc12` (relative stereo) [Example 19, rac-2-(3-{[2-((1R*,2R*,4R*)-2-Hydroxy-5-phenyl-bicyclo[2.2.2]oct-5-en-2-yl)-ethyl]-methyl-amino}-propyl)-1H-benzoimidazole-4-carboxylic acid methyl ester], 1.57 µM. Regarding `COc1ccc(C2=CC3CCC2CC3(O)CCN(C)CCCc2nc3ccccc3[nH]2)cc1` (racemic) [Example 22, rac-(1R*,2R*,4R*)-2-(2-{[3-(1H-Benzoimidazol-2-yl)-propyl]-methyl-amino}-ethyl)-5-(4-methoxy-phenyl)-2-yl-bicyclo[2.2.2]oct-5-en-2-ol], the IC50 was over 10 µM. To `CCOc1ccc(CCCN(C)CC[C@]2(O)C[C@H]3CC[C@@H]2C=C3c2ccccc2)cc1OCC` (relative stereo) [Example 40, rac-(1R*,2R*,4R*)-2-(2-{[3-(3,4-Diethoxy-phenyl)-propyl]-methyl-amino}-ethyl)-5-phenyl-bicyclo[2.2.2]oct-5-en-2-ol] belongs 3.33 µM.

As for `COc1ccc(CCCN(C)CC[C@]2(O)C[C@H]3CC[C@@H]2C=C3c2ccccc2)cc1OC` (relative stereo) [Example 39, rac-(1R*,2R*,4R*)-2-(2-{[3-(3,4-Dimethoxy-phenyl)-propyl]-methyl-amino}-ethyl)-5-phenyl-bicyclo[2.2.2]oct-5-en-2-ol], the IC50 was over 10 µM. Take `CN(CCCc1cccnc1)CC[C@]1(O)C[C@H]2CC[C@@H]1C=C2c1ccccc1` (relative stereo) [Example 46, rac-(1R*,2R*,4R*)-2-{2-[Methyl-(3-pyridin-3-yl-propyl)-amino]-ethyl}-5-phenyl-bicyclo[2.2.2]oct-5-en-2-ol]: the IC50 is over 10 µM. Then `CCOc1cccc2nc(CCCN(C)CC[C@]3(O)C[C@H]4CC[C@@H]3C=C4c3ccccc3)[nH]c12` (relative stereo) [Example 31, rac-(1R*,2R*,4R*)-2-(2-{[3-(7-Ethoxy-1H-benzoimidazol-2-yl)-propyl]-methyl-amino}-ethyl)-5-phenyl-bicyclo[2.2.2]oct-5-en-2-ol], with 2.58 µM; and `Cc1ccccc1C1=C[C@H]2CC[C@@H]1C[C@@]2(O)CCN(C)CCCc1nc2ccccc2[nH]1` (relative stereo) [Example 4, rac-(1R*,2R*,4R*)-2-(2-{[3-(1H-Benzoimidazol-2-yl)-propyl]-methyl-amino}-ethyl)-5-(2-methyl-phenyl)-bicyclo[2.2.2]oct-5-en-2-ol], with 3.61 µM; and `COc1ccccc1C1=C[C@H]2CC[C@@H]1C[C@]2(CCN(C)CCCc1nc2ccccc2[nH]1)OC(=O)C(C)C` (relative stereo) [Example 23A, rac-Isobutyric acid (1R*,2R*,4R*)-2-(2-{[3-(1H-benzoimidazol-2-yl)-propyl]-methyl-amino}-ethyl)-5-(2-methoxy-phenyl)-bicyclo[2.2.2]oct-5-en-2-yl ester], with 4.01 µM. With `CN(CCCc1nc2ccccc2[nH]1)CC[C@]1(O)C[C@H]2CC[C@@H]1C=C2c1ccc2ccccc2c1` (relative stereo) [Example 10, rac-(1R*,2R*,4R*)-2-(2-{[3-(1H-Benzoimidazol-2-yl)-propyl]-methyl-amino}-ethyl)-5-naphthalen-2-yl-bicyclo[2.2.2]oct-5-en-2-ol], the IC50 came to 5.87 µM. To `CCOc1ccc(CCN(CC)CC[C@]2(OC(=O)C(C)C)C[C@H]3CC[C@@H]2C=C3c2ccccc2)cc1OCC` (relative stereo) [Example 38A, rac-Isobutyric acid (1R*,2R*,4R*)-2-(2-{[2-(3,4-diethoxy-phenyl)-ethyl]-ethyl-amino}-ethyl)-5-phenyl-bicyclo[2.2.2]oct-5-en-2-yl ester] belongs 2.51 µM. Turning to `CO[C@@]1(c2ccccc2)C[C@H]2CC[C@@H]1C[C@@]2(O)CCN(C)CCCc1nc2ccccc2[nH]1` (relative stereo) [Example 78, rac-(1R*,2R*,4R*,5S*)-2-(2-{[3-(1H-Benzoimidazol-2-yl)-propyl]-methyl-amino}-ethyl)-5-methoxy-5-phenyl-bicyclo[2.2.2]octan-2-ol], the IC50 is over 10 µM. Then `CN(CCCc1nc2cc(Cl)c(Cl)cc2[nH]1)CC[C@]1(OC(=O)C2CC2)C[C@H]2CC[C@@H]1C=C2c1ccccc1` (relative stereo) [Example 27B, rac-Cyclopropanecarboxylic acid (1R*,2R*,4R*)-2-(2-{[3-(5,6-dichloro-1H-benzoimidazol-2-yl)-propyl]-methyl-amino}-ethyl)-5-phenyl-bicyclo[2.2.2]oct-5-en-2-yl ester], with 4.73 µM.
